Patent US11608341B2, “Substituted tetrahydropyrazolo[3,4-d]pyrimidines and tetrahydropyrazolo[4,3-d]pyrimidines as C5A receptor modulators” (Idorsia Pharmaceuticals Ltd., priority 2018, dated 2023)

Each compound was assayed against T1, C5AR1 (Homo sapiens, UniProt P21730) (assay: In vitro assay: antagonism of C5a-induced beta-arrestin recruitment (PathHunter) in CHO-K1 C5AR1 beta-arrestin cell line). Settings: antagonistic activity, 1-10 nM C5a agonist, geometric mean where several measurements, read-out: C5aR IC50.
T1 construct: host or cells: CHO-K1
T1 sequence (P21730 1-350): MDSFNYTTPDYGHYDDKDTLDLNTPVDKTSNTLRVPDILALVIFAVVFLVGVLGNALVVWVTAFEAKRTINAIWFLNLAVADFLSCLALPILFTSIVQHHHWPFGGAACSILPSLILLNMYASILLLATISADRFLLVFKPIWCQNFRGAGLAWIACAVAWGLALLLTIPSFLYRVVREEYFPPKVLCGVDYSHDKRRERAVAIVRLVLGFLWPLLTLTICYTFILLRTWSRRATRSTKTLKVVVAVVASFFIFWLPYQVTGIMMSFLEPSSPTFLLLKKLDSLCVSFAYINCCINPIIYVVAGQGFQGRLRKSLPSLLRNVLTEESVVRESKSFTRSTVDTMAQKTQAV
Format: cell-based
Method in brief: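 Antagonist or DMSO added first, then C5a (1-10 nM, added at 6-fold end concentration), 1.5 h at 37 °C. PathHunter detection reagent was added for 45 min at RT before plate reading. IC50s come from antagonist serial dilutions in nmol/l and are geometric means of several measurements.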

Row | SMILES | IC50 [nM]
1 | Cc1cccc(F)c1N1CCC(N2Cc3nn(COCC[Si](C)(C)C)cc3N(Cc3ccccc3C(F)(F)F)C2=O)CC1 [Example 195] | 45
2 | COc1nccc(C)c1N1CCC(N2Cc3c[nH]nc3N(Cc3ccccc3C(F)(F)F)C2=O)CC1 [Example 197] | 17
3 | Cc1cccc(F)c1N1CCC(N2Cc3nn(COCC[Si](C)(C)C)cc3N(Cc3ncccc3C(F)(F)F)C2=O)CC1 [Example 199] | 32
4 | Cc1cccc(F)c1N1CCC(N2Cc3n[nH]cc3N(Cc3ncccc3C(F)(F)F)C2=O)CC1 [Example 204] | 23
5 | Cc1cccc(F)c1N1CCC(N2Cc3cnn(CC4CC4)c3N(Cc3ccccc3C(F)(F)F)C2=O)CC1 [Example 210] | 46
6 | Cc1cccc(F)c1N1CCC(N2Cc3cn(C4CC4)nc3N(Cc3c(Br)cccc3C(F)(F)F)C2=O)CC1 [Example 213] | 53
7 | Cc1cccc(F)c1N1CCC(N2Cc3cn(CC(C)(F)F)nc3N(Cc3c(Br)cccc3C(F)(F)F)C2=O)CC1 [Example 214] | 87
8 | Cc1cccc(F)c1N1CCC(N2Cc3c(cnn3C3CC3)N(Cc3ncccc3C(F)(F)F)C2=O)CC1 [Example 215] | 146
9 | COc1nccc(C)c1N1CCC(N2Cc3c(cnn3COCC[Si](C)(C)C)N(Cc3ccccc3C(F)(F)F)C2=O)CC1 [Example 216] | 41
10 | COc1nccc(C)c1N1CCC(N2Cc3nn(CC(C)(F)F)cc3N(Cc3ccccc3C(F)(F)F)C2=O)CC1 [Example 219] | 38
11 | COc1nccc(C)c1N1CCC(N2Cc3nn(CC4(F)CC4)cc3N(Cc3ccccc3C(F)(F)F)C2=O)CC1 [Example 222] | 19
12 | COc1nccc(C)c1N1CCC(N2Cc3nn(C4CC4)cc3N(Cc3ccccc3C(F)(F)F)C2=O)CC1 [Example 223] | 32
13 | COc1nccc(C)c1N1CCC(N2Cc3nn(C)cc3N(Cc3ccccc3C(F)(F)F)C2=O)CC1 [Example 224] | 76
14 | Cc1nn(C)c(N2CCC(N3Cc4cn(C)nc4N(Cc4ccccc4C(F)(F)F)C3=O)CC2)c1C#N [Example 229] | 550
15 | Cc1cccc(F)c1N1CCC(N2Cc3c(cnn3COCC[Si](C)(C)C)N(Cc3ncccc3C(F)(F)F)C2=O)CC1 [Example 230] | 37
16 | Cc1cccc(F)c1N1CCC(N2Cc3cn(C)nc3N(Cc3ccccc3C(C)C)C2=O)CC1 [Example 231] | 17
17 | Cc1cccc(F)c1N1CCC(N2Cc3cn(C)nc3N(Cc3c(F)cc(F)cc3OC(C)C)C2=O)CC1 [Example 236] | 312
18 | Cc1cccc(F)c1N1CCC(N2C(=O)N(Cc3ccccc3C(F)(F)F)c3cnn(COCC[Si](C)(C)C)c3C2C)CC1 (stereo not shown) [Example 237] | 80
19 | Cc1nn(C)c(N2CCC(N3Cc4cn(C)nc4N(Cc4ccccc4C(F)(F)F)C3=O)CC2)c1Cl [Example 238] | 166
20 | Cn1cc2c(n1)N(Cc1ccccc1C(F)(F)F)C(=O)N(C1CCN(c3c(F)cccc3C(F)(F)F)CC1)C2 [Example 243] | 28

Row | SMILES | IC50 [nM]
21 | Cc1cccc(F)c1N1CCC(N2Cc3cn(C)nc3N(Cc3ccccc3OCC3CC3)C2=O)CC1 [Example 248] | 16
22 | Cc1cccc(F)c1N1CCC(N2Cc3cn(C)nc3N(Cc3cncnc3C(C)C)C2=O)CC1 [Example 249] | 69
23 | Cc1cccc(F)c1N1CCC(N2Cc3nn(C)cc3N(Cc3ccccc3C3CC3)C2=O)CC1 [Example 259] | 49
24 | Cc1cccc(F)c1N1CCC(N2Cc3nn(C)cc3N(Cc3ccccc3C(C)C)C2=O)CC1 [Example 260] | 40
25 | Cc1cccc(F)c1N1CC(N2Cc3cn(C)nc3N(Cc3ccccc3C(F)(F)F)C2=O)C1 [Example 264] | 216
26 | Cc1cccc(F)c1N1CCC(N2Cc3cn(C)nc3N(Cc3nnccc3OC(C)C)C2=O)CC1 [Example 267] | 201
27 | Cc1cccc(F)c1N1CCC(N2C(=O)N(Cc3ccccc3C3CC3)c3cn(C4CCCCO4)nc3C2C)CC1 (stereo not shown) [Example 268] | 72
28 | COc1nccc(C)c1N1CCC(N2C(=O)N(Cc3ccccc3C3CC3)c3cn(C4CCCCO4)nc3C2C)CC1 (stereo not shown) [Example 269] | 193
29 | Cn1cc2c(n1)CN(C1CCN(c3c(F)cccc3OC(F)(F)F)CC1)C(=O)N2Cc1ccccc1C(F)(F)F [Example 270] | 54
30 | Cn1cc2c(n1)CN(C1CCN(c3c(F)cccc3C(F)(F)F)CC1)C(=O)N2Cc1ccccc1C(F)(F)F [Example 271] | 51
31 | Cn1cc2c(n1)N(Cc1ccccc1C(F)(F)F)C(=O)N(C1CCN(c3c(F)cccc3Cl)CC1)C2 [Example 272] | 18
32 | Cn1cc2c(n1)N(Cc1ccccc1C1CC1)C(=O)N(C1CCN(c3c(F)cccc3OC(F)(F)F)CC1)C2 [Example 281] | 17
33 | Cc1cccc(F)c1N1CCC(N2C(=O)N(Cc3ccccc3C(F)(F)F)c3cn(C4CCCCO4)nc3C2C)CC1 (stereo not shown) [Example 294] | 56
34 | CCc1cccc(F)c1N1CCC(N2Cc3cn(C)nc3N(Cc3ccccc3C(F)(F)F)C2=O)CC1 [Example 299] | 402
35 | Cn1cc2c(n1)N(Cc1ccccc1C(F)(F)F)C(=O)N(C1CCN(c3c(F)cccc3C(F)F)CC1)C2 [Example 300] | 29
36 | Cn1cc2c(n1)CN(C1CCN(c3c(F)cccc3C(F)F)CC1)C(=O)N2Cc1ccccc1C(F)(F)F [Example 301] | 69
37 | Cn1cc2c(n1)CN(C1CCN(c3c(F)cccc3Cl)CC1)C(=O)N2Cc1ccccc1C(F)(F)F [Example 302] | 48
38 | Cn1cc2c(n1)CN(C1CCN(c3c(F)cccc3C3CC3)CC1)C(=O)N2Cc1ccccc1C(F)(F)F [Example 304] | 35
39 | Cn1cc2c(n1)N(Cc1ccccc1C1CC1)C(=O)N(C1CCN(c3c(F)cccc3C3CC3)CC1)C2 [Example 307] | 30
40 | Cn1cc2c(n1)N(Cc1ccccc1C1CC1)C(=O)N(C1CCN(c3c(F)cccc3C(F)F)CC1)C2 [Example 308] | 22

The remaining compounds from weak to strong by IC50, led by results:

Row | IC50 [nM] | SMILES
41 | 16 | Cc1cccc(F)c1N1CCC(N2Cc3cn(C)nc3N(Cc3ccccc3OC(F)(F)F)C2=O)CC1 [Example 232]
42 | 16 | Cn1cc2c(n1)N(Cc1ccccc1C(F)(F)F)C(=O)N(C1CCN(c3c(F)cccc3OC(F)(F)F)CC1)C2 [Example 244]
43 | 16 | Cc1cccc(Cl)c1N1CCC(N2Cc3cn(C)nc3N(Cc3ccccc3C(F)(F)F)C2=O)CC1 [Example 245]
44 | 14 | Cn1cc2c(n1)N(Cc1ccccc1C(F)(F)F)C(=O)N(C1CCN(c3ccccc3C3CC3)CC1)C2 [Example 258]
45 | 13 | Cc1cccc(F)c1N1CCC(N2Cc3nn(CC(C)(F)F)cc3N(Cc3ccccc3C(F)(F)F)C2=O)CC1 [Example 198]
46 | 13 | Cn1cc2c(n1)N(Cc1ccccc1C(F)(F)F)C(=O)N(C1CCN(c3c(F)cccc3F)CC1)C2 [Example 273]
47 | 12 | COc1nccc(C)c1N1CCC(N2Cc3n[nH]cc3N(Cc3ccccc3C(F)(F)F)C2=O)CC1 [Example 218]
48 | 11 | COc1nccc(C)c1N1CCC(N2Cc3cn(COCC[Si](C)(C)C)nc3N(Cc3ccccc3C(F)(F)F)C2=O)CC1 [Example 196]
49 | 11 | Cc1cccc(F)c1N1CCC(C)(N2Cc3cn(C)nc3N(Cc3ccccc3C(F)(F)F)C2=O)CC1 [Example 217]
50 | 10 | Cc1cccc(F)c1N1CCC(N2Cc3nn(C4CC4)cc3N(Cc3ncccc3C(F)(F)F)C2=O)CC1 [Example 212]
51 | 10 | COCn1cc2c(n1)N(Cc1ccccc1C(F)(F)F)C(=O)N(C1CCN(c3c(C)ccnc3OC)CC1)C2 [Example 227]
52 | 10 | Cc1cccc(F)c1N1CCC(N2Cc3cn(C)nc3N(Cc3ccccc3C3CC3)C2=O)CC1 [Example 228]
53 | 10 | Cc1cccc(F)c1N1CCC(N2Cc3cn(C)nc3N(Cc3ccccc3Cl)C2=O)CC1 [Example 233]
54 | 10 | Cc1cccc(F)c1N1CCC(N2Cc3cn(C)nc3N(Cc3ccccc3OC3COC3)C2=O)CC1 [Example 250]
55 | 10 | Cn1cc2c(n1)N(Cc1ccccc1C(F)(F)F)C(=O)N(C1CCN(c3c(F)cccc3C3CC3)CC1)C2 [Example 303]
56 | 9 | Cc1cccc(F)c1N1CCC(N2Cc3cn(C)nc3N(Cc3ccccc3OC(C)C)C2=O)CC1 [Example 251]
57 | 9 | CCOc1ccccc1CN1C(=O)N(C2CCN(c3c(C)cccc3F)CC2)Cc2cn(C)nc21 [Example 252]
58 | 9 | CC(C)c1ccccc1N1CCC(N2Cc3cn(C)nc3N(Cc3ccccc3C(F)(F)F)C2=O)CC1 [Example 257]
59 | 9 | Cn1cc2c(n1)N(Cc1ccccc1C1CC1)C(=O)N(C1CCN(c3c(F)cccc3Cl)CC1)C2 [Example 284]
60 | 9 | Cn1cc2c(n1)N(Cc1ccccc1C1CC1)C(=O)N(C1CCN(c3c(F)cccc3F)CC1)C2 [Example 285]
61 | 8 | COc1nccc(C)c1N1CCC(N2Cc3cn(CC(C)(F)F)nc3N(Cc3ccccc3C(F)(F)F)C2=O)CC1 [Example 205]
62 | 8 | COc1nccc(C)c1N1CCC(N2Cc3cn(C)nc3N(Cc3ccccc3C3CC3)C2=O)CC1 [Example 283]
63 | 6 | COc1nccc(C)c1N1CCC(N2Cc3cn(CC4(F)CC4)nc3N(Cc3ccccc3C(F)(F)F)C2=O)CC1 [Example 201]
64 | 5 | Cc1cccc(F)c1N1CCC(N2Cc3cn(CC(C)(F)F)nc3N(Cc3ncccc3C(F)(F)F)C2=O)CC1 [Example 194]
65 | 5 | COc1nccc(C)c1N1CCC(N2Cc3cn(C4CC4)nc3N(Cc3ccccc3C(F)(F)F)C2=O)CC1 [Example 209]
66 | 4 | Cc1cccc(F)c1N1CCC(N2Cc3cn(CC4(F)CC4)nc3N(Cc3ncccc3C(F)(F)F)C2=O)CC1 [Example 200]
67 | 3 | Cc1cccc(F)c1N1CCC(N2Cc3nn(CC4(F)CC4)cc3N(Cc3ncccc3C(F)(F)F)C2=O)CC1 [Example 208]
